In brackets after ≈: the same amount, converted by molar mass. One block for each compound: values may come before it.
Experiments:
Test in all cases: ≥ marks a high value that may be exact or a test limit, other limits are often not marked, values filed in µg/mL are converted to µM
[1] = test system: Staphylococcus aureus M838-17
[2] = test system: Klebsiella pneumoniae E406-17
[3] = test system: Pseudomonas aeruginosa E411-17
[4] = test system: Escherichia coli 078
[5] = test system: Lactiplantibacillus plantarum 8014
[6] = test system: Escherichia coli 987P
[7] = test system: Lacticaseibacillus rhamnosus 1.0911
[8] = test system: Lacticaseibacillus rhamnosus 1.9205
[9] = test system: Staphylococcus epidermidis ATCC 12228
[10] = test system: Lacticaseibacillus rhamnosus 1.0386
[11] = test system: Salmonella enterica subsp. enterica serovar Typhimurium C77-31
[12] = test system: Escherichia coli K88
[13] = test system: Escherichia coli ATCC 25922
[14] = test system: Escherichia coli K99
[15] = test system: Lacticaseibacillus rhamnosus 7469
[16] = test system: Pseudomonas aeruginosa ATCC 27853
[17] = test system: Staphylococcus aureus ATCC 25923
[18] = test system: Escherichia coli UB1005
[19] = test system: Lacticaseibacillus rhamnosus 1.0385
[20] = test system: Streptococcus agalactiae ATCC 13813
[21] = test system: Staphylococcus aureus ATCC 29213
[22] = test system: Cryptococcus neoformans
[23] = test system: Escherichia coli SBS 363
[24] = test system: Micrococcus luteus A270
[25] = test system: Penicillium expansum
[26] = test system: Aspergillus niger
[27] = test system: Candida tropicalis ATCC 750
[28] = test system: Candida albicans ATCC 90029
[29] = test system: Candida krusei ATCC 40147
[30] = test system: Candida parapsilosis ATCC 90018
[31] = test system: Candida albicans CA1
[32] = test system: Klebsiella pneumoniae ATCC 49472
[33] = test system: Escherichia coli ATCC 35218
[34] = test system: Staphylococcus aureus ATCC 12600
[35] = test system: Staphylococcus aureus ATCC BAA-2312
[36] = test system: Salmonella enterica subsp. enterica serovar Typhimurium ATCC 14028
[37] = test system: Enterococcus faecium ATCC 19434
[38] = test system: Enterococcus faecalis ATCC 51299
[39] = test system: Klebsiella pneumoniae ATCC BAA-2814
[40] = test system: Pseudomonas aeruginosa 253
[41] = test system: Pseudomonas aeruginosa PAO1
[42] = test system: Pseudomonas aeruginosa 919
[43] = test system: Pseudomonas aeruginosa 910

MIC [1]: 3.1 µM (≈ 4.17 µg/mL)
MIC [2]: 6.25 µM (≈ 8.4 µg/mL)
MIC [3]: 6.25 µM (≈ 8.4 µg/mL)
Compound: CC(C)C[C@H](NC(=O)[C@H](Cc1c[nH]c2ccccc12)NC(=O)[C@H](Cc1c[nH]c2ccccc12)NC(=O)[C@H](Cc1c[nH]c2ccccc12)NC(=O)[C@H](Cc1c[nH]c2ccccc12)NC(=O)[C@H](CCCN=C(N)N)NC(=O)[C@H](CCCN=C(N)N)NC(=O)[C@@H](N)CCCN=C(N)N)C(N)=O [RRRWWWWL]

MIC [4]: ≥ 128 µM
MIC [6]: ≥ 128 µM
MIC [7]: ≥ 128 µM
MIC [8]: ≥ 128 µM
MIC [9]: > 128 µM
MIC [10]: ≥ 128 µM
MIC [11]: ≥ 128 µM
MIC [12]: ≥ 64 µM
MIC [13]: 64 µM (≈ 77.5 µg/mL)
MIC [14]: ≥ 64 µM
MIC [15]: ≥ 128 µM
MIC [16]: > 128 µM
MIC [17]: > 128 µM
MIC [18]: ≥ 128 µM
MIC [19]: ≥ 128 µM
MIC [20]: ≥ 128 µM
MIC [21]: > 128 µM
Compound: CC(C)C[C@H](NC(=O)[C@H](CCCN=C(N)N)NC(=O)[C@@H](NC(=O)[C@H](CCCN=C(N)N)NC(=O)[C@@H]1CCCN1C(=O)[C@H](CCCN=C(N)N)NC(=O)[C@H](CCCCN)NC(=O)[C@@H](N)CCC(N)=O)C(C)C)C(=O)N[C@@H](CO)C(=O)N[C@@H](C)C(=O)O [QKRPRVRLSA]
MIC [5]: ≥ 128 µM

MIC [22]: ≥ 128 µM
MIC [23]: ≥ 100 µM
MIC [24]: ≥ 128 µM
MIC [25]: ≥ 128 µM
MIC [16]: 64 µM (≈ 58.9 µg/mL)
MIC [26]: ≥ 128 µM
Compound: CSCC[C@H](NC(=O)CNC(=O)[C@H](CC(C)C)NC(=O)[C@H](Cc1ccccc1)NC(=O)CNC(=O)[C@H](CO)NC(=O)[C@@H]1CCCN1C(=O)CN)C(=O)N[C@@H](CCCN=C(N)N)C(=O)O [GPSGFLGMR]

MIC [27]: 10 µM (≈ 25.6 µg/mL)
MIC [28]: 10 µM (≈ 25.6 µg/mL)
MIC [29]: 5 µM (≈ 12.8 µg/mL)
MIC [30]: 10 µM (≈ 25.6 µg/mL)
MIC [31]: 10 µM (≈ 25.6 µg/mL)
Compound: CC[C@H](C)[C@H](NC(=O)[C@H](C)NC(=O)[C@H](CCCCN)NC(=O)[C@H](CC(C)C)NC(=O)[C@H](C)NC(=O)[C@H](Cc1c[nH]c2ccccc12)NC(=O)[C@H](CCCCN)NC(=O)[C@H](C)NC(=O)[C@H](CC(C)C)NC(=O)[C@@H](NC(=O)CNC(=O)[C@H](Cc1c[nH]c2ccccc12)NC(=O)[C@@H](N)Cc1ccccc1)[C@@H](C)O)C(=O)N1CCC[C@H]1C(=O)N[C@@H](C)C(=O)N[C@@H](C)C(=O)N[C@@H](CCSC)C(=O)NCC(=O)N[C@@H](CCSC)C(=O)N[C@@H](CCCCN)C(=O)N[C@@H](CCC(N)=O)C(=O)N[C@@H](CC(N)=O)C(=O)N[C@@H](CCCCN)C(=O)O [FWGTLAKWALKAIPAAMGMKQNK]

MIC [32]: ≥ 125 µM
MIC [33]: ≥ 62.5 µM
MIC [34]: ≥ 250 µM
MIC [35]: ≥ 250 µM
MIC [36]: 250 µM (≈ 663 µg/mL)
MIC [16]: > 125 µM
MIC [37]: ≥ 250 µM
MIC [38]: ≥ 250 µM
MIC [39]: ≥ 125 µM
Compound: CC[C@H](C)[C@H](NC(=O)[C@H](CC(=O)O)NC(=O)[C@@H](NC(=O)[C@@H](NC(=O)[C@H](C)NC(=O)CN)C(C)C)C(C)C)C(=O)N[C@@H](CC(C)C)C(=O)N[C@@H](CCCCN)C(=O)NCC(=O)N[C@@H](C)C(=O)NCC(=O)N[C@@H](CCCCN)C(=O)N[C@@H](CC(N)=O)C(=O)N[C@@H](CC(C)C)C(=O)N[C@@H](CC(C)C)C(=O)N[C@@H](CO)C(=O)N[C@@H](CC(C)C)C(=O)N[C@@H](C)C(=O)N[C@@H](CC(C)C)C(=O)N[C@@H](CC(N)=O)C(=O)N[C@@H](CCCCN)C(=O)N[C@@H](CC(C)C)C(=O)N[C@@H](CO)C(=O)N[C@@H](CCC(=O)O)C(=O)N[C@@H](CCCCN)C(=O)N[C@H](C(N)=O)C(C)C [GAVVDILKGAGKNLLSLALNKLSEKV]

MIC [40]: 8 µM (≈ 15.7 µg/mL)
MIC [41]: 2 µM (≈ 3.92 µg/mL)
MIC [42]: ≥ 32 µM
MIC [43]: 4 µM (≈ 7.84 µg/mL)
Compound: CC[C@H](C)[C@H](N)C(=O)N[C@@H](CC(C)C)C(=O)N[C@@H](CCCCN)C(=O)N[C@@H](Cc1c[nH]c2ccccc12)C(=O)N[C@@H](CCCCN)C(=O)N[C@@H](CCCN=C(N)N)C(=O)N[C@@H](CCCCN)C(=O)N[C@@H](Cc1c[nH]c2ccccc12)C(=O)N[C@@H](Cc1c[nH]c2ccccc12)C(=O)N[C@@H](CCCCN)C(=O)N[C@@H](Cc1c[nH]c2ccccc12)C(=O)N[C@@H](Cc1ccccc1)C(=O)N[C@@H](CCCN=C(N)N)C(N)=O [ILKWKRKWWKWFR]
